Literature values, collected in US5998415A, “Bicyclic heteroaryl-alkylene-(homo)piperazinones and thione analogues thereof, their preparation, and their use of as selective agonists of 5-HT1 -like receptors” (Merck Sharp & Dohme Ltd., priority 1995, dated 1999).

Columns and labels:
[1] = humans, therapeutic doses
[2] = tested on: human 5-HT1Dα and 5-HT1Dβ receptor subtypes; settings: cf. WO-A-91/17174, Table 1

CNS(=O)(=O)Cc1ccc2[nH]cc(CCN(C)C)c2c1 [sumatriptan]
adverse cardiovascular events (in words) [1]: certain adverse cardiovascular events | discrimination between the human 5-HT1Dα and 5-HT1Dβ receptor subtypes (in words) [2]: barely discriminates between the human 5-HT1Dα and 5-HT1Dβ receptor subtypes
